Where a name gives a salt, the structure may show the parent alone.
Columns and labels:
Assay type in all cases: physicochemical
[1] = Desolvation studies: equilibration at 125° C. in high boiling point solvents; details: two days; for Form in Ambient AAC: then accelerated aging conditions
Experimental: Using solvent equilibration of hydrates in high boiling point solvents has been reported as a method to obtaining desolvated forms. […] The experiments were started with approximately 50 mg of material and 100 μL of solvent. After equilibration, the solids were isolated from the solutions by centrifugation. The solids were allowed to dry under ambient conditions before HT-XRPD analysis was performed. The wet solids were analyzed by HT-XRPD immediately to avoid hydration under ambient conditions or under vacuum.

[2] = Competitive slurry conversion (thermodynamic stability) of Form 1 and Form 3; details: one week slurry
Experimental: Approximately 50 mg of each solid form were solid dosed in a standard HPLC vial followed by solvent addition. The competitive slurry experiments were performed in ethanol/water mixtures and methanol/water mixtures within a water activity range of 0-0.2. Approximately 50 mg of each pracinostat dihydrochloride solid form 2.5 hydrate and monohydrate were solid dosed in 1.8 mL HPLC vials. Aliquots of 100 μL of the different water mixtures were added until about half of the amount of solid was in solution. […] Upon completion of the equilibration time, the solids were separated from the liquids by centrifugation. The solids were dried under ambient conditions (ambient) and dried under vacuum (vacuum) before HT-XRPD analysis. All solid samples were exposed to accelerated gaining conditions (40° C. and 70% RH) for two days (AAC). The water content in the liquid phase was determined Karl Fischer analysis.

[3] = Moisture sorption study (DVS analysis)
Experimental: A moisture sorption study was performed to investigate the physical stability of 3-[2-butyl-1-(2-diethylamino-ethyl)-1H-benzoimidazol-5-yl]-N-hydroxy-acrylamide dihydrochloride 2.5 hydrate upon exposure to several relative humidity profiles. HT-XRPD analyses were performed on the solid material obtained after the DVS analyses. The analytical method is described herein.
Differences in hygroscopicity (moisture uptake) of the various forms of a solid material provided a measure of their relative stability at increasing relative humidity. Moisture sorption isotherms of small samples were obtained using a DVS-1 system from Surface Measurement Systems (London, UK); this instrument is suitable for use with as little as a few milligrams of sample, with an accuracy of 0.1 μg. Several humidity profile were applied as described in each individual experiment. Steps consisted of 10% RH. Weight equilibration per step was set with a minimum holding time of 1 hour (10% relative humidity step). At the end of the DVS experiments, the recovered solid material was measured by HT-XRPD.

[4] = Variable temperature XRPD; details: 25° C. to 143° C., cooling to 25° C., reheating to 155° C.
Experimental: To investigate the phase interconversions upon temperature exposure, a variable temperature XRPD analysis on 3-[2-butyl-1-(2-diethylamino-ethyl)-1H-benzoimidazol-5-yl]-N-hydroxy-acrylamide dihydrochloride 2.5 hydrate was performed. The experiment was run between 25° C. to 130° C. with cooling back to 25° C. at the end. […] After reaching a temperature of 130° C., the material was cooled back to 25° C.
A variable temperature XRPD experiment with 3-[2-butyl-1-(2-diethylamino-ethyl)-1H-benzoimidazol-5-yl]-N-hydroxy-acrylamide dihydrochloride monohydrate was conducted to investigate the solid form conversion that occurred upon heating. The experiment was run between 25° C. to 143° C. followed by cooling to 25° C., reheating to 155° C. and then cooling again to 25° C. (see FIG. 19).
(§1) For variable humidity and temperature experiments the ANSYCO HT chamber was used, installed within the D8 Advance system diffractometer (Bruker) designed with Brag-Brentano geometry and equipped with LynxEye solid state detector. The radiation used for collecting the data was CuKα1 (λ=1.54056 Å) monochromatized by germanium crystal. The material was placed on a fixed sample holder that was mounted inside the chamber.
VT-XRPD: The temperature variation rate was 10° C./min and the equilibration time, prior to starting the data collection at each temperature, was 8 min. The patterns were collected in the range 4-41°2θ, with a step of 0.01573°2θ and measuring time per step of 1 sec. The data collection time, per temperature, was 40 min.

[5] = Long-term slurry conversion experiments
Experimental: Approximately 30 mg of the specific form was dosed in a standard HPLC vial and aliquots of 100 μL of solvent until a suspension was formed. […] The solids were isolated from the mother liquor and analyzed by HT-XRPD after mild drying under ambient conditions (ambient) and after thorough drying under vacuum (vacuum). All the solids were exposed to accelerated ageing conditions (2 days at 40° C./70% RH) and re-analyzed by HT-XRPD.

Thermocycling studies = details: ethanol, absolute or extra dry; dihydrochloride monohydrate
Experimental: The suspensions were cycled between 5° C. and 50° C. followed by aging at 25° C. for 72 hours. […] Upon completion of the incubation time, the solids were collected, dried under ambient conditions and dried under deep vacuum before being analyzed by HT-XRPD. All the measured solids were exposed to accelerated ageing conditions (2 days at 40° C./70% RH) followed by re-analysis by HT-XRPD.

Variable humidity XRPD = details: variable humidity XRPD at 30° C.; dihydrochloride monohydrate
From the text: (§2) The analytical method is described herein.
as §2, §1

[6] = Moisture sorption study (DVS analysis); remark: listed apart in the source
[7] = cycles 45-95-0-45% RH, two cycles
[8] = second DVS: 45% to 95% RH, held at 95% RH for 10 hours

Q: With `CCCCc1nc2cc(/C=C/C(=O)NO)ccc2n1CCN(CC)CC` [Form 1, 3-[2-butyl-1-(2-diethylamino-ethyl)-1H-benzoimidazol-5-yl]-N-hydroxy-acrylamide dihydrochloride monohydrate] as the compound, how does the “Form in Ambient” value ([1]; Anisole) read?
A: Mono

Q: What about the “Form in Ambient AAC” value ([1]; Anisole) of the same compound?
A: 2.5

Q: And the “Form in Ambient” value ([1]; Cumene)?
A: Mono

Q: What about the “Form in Ambient AAC” value ([1]; Cumene, dihydrochloride monohydrate) of the same compound?
A: 2.5

Q: And the “Form in Ambient” value ([1]; N-Methyl-2-pyrrolidone, dihydrochloride monohydrate)?
A: No solids

Q: And the “Form in Ambient” value ([1]; p-Xylene)?
A: Mono

Q: What about the “Form in Ambient AAC” value ([1]; p-Xylene) of the same compound?
A: 2.5

Q: And the “water content of the solvent system at which the form is the most stable / obtained form” value ([2]; ethanol/water, 5° C. (below ambient), dihydrochloride monohydrate)?
A: below 2%

Q: And the “water content of the solvent system at which the form is the most stable form” value ([2]; ethanol/water, 50° C. (elevated temperatures), dihydrochloride monohydrate)?
A: 2-4%

Q: What about the “water content of the solvent system at which the form is the most stable form” value ([2]; methanol/water, 5° C.) of the same compound?
A: below 6%

Q: What about the “solid form recovered after DVS” value ([3]; 45-95-0% RH with aging for 5 hours at 0% RH, HT-XRPD) of the same compound?
A: 2.5 hydrate (Form 3) with a small contamination of the hemihydrate (Form 10)

Q: And the “water uptake between 85-95% RH” value [3, 7]?
A: 17%

Q: What about the “weight loss during desorption between 15-0% RH” value [3, 7] of the same compound?
A: 10%

Q: And the “weight loss during desorption between 95-75% RH” value [3, 7]?
A: 7%

Q: What about the “water uptake at 75% RH” value ([3]; first cycle of 45-95-0-45% RH) of the same compound?
A: 18%

Q: And the “water uptake between 85-95% RH” value [3, 8]?
A: 18%

Q: What about the “weight loss after aging at 95% RH for 2 hours” value [3, 8] of the same compound?
A: about 12%

Q: What about the “solid form conversion upon heating” value [4] of the same compound?
A: No solid form conversions were observed

Q: What about the “solid form after slurry” value ([5]; all ethanol/water and methanol/water mixtures at ambient conditions) of the same compound?
A: transformed into the 2.5 hydrate (Form 3)

Q: What about the “solid form after slurry” value ([5]; no water present in the solvent system) of the same compound?
A: conversion to the anhydrous Form 9

Q: What about the “solid form after thermocycling” value (Thermocycling studies) of the same compound?
A: transformed into the anhydrous Form 9

Q: What about the “relative humidity at which the form is physically stable” value (Variable humidity XRPD) of the same compound?
A: 10-85 % RH

Q: What about the “relative humidity level above which conversion to the 2.5 hydrate (Form 3) occurs” value ([6]; DVS 45-95% RH) of the same compound?
A: above 85%

Q: And the hygroscopicity ([6]; DVS, dihydrochloride monohydrate)?
A: hygroscopic

Q: What about the “solid form recovered after DVS” value ([6]; two sorption-desorption cycles 45-95-0-95-0-45% RH, HT-XRPD, dihydrochloride monohydrate) of the same compound?
A: conversion mainly to the 2.5 hydrate (Form 3)
